# Measurements: ChEMBL document CHEMBL5291721, “A preclinical secondary pharmacology resource illuminates target-adverse drug reaction associations of marketed drugs” (Nat Commun, 2023)
# What was measured:
# [1] = molecular target: Histamine H1 receptor (Homo sapiens, UniProt P35367); format: functional, cell-based
# [2] = molecular target: T1, Oxysterols receptor LXR-alpha (Homo sapiens, UniProt Q13133); format: functional
# T1 sequence (Q13133 whole entry): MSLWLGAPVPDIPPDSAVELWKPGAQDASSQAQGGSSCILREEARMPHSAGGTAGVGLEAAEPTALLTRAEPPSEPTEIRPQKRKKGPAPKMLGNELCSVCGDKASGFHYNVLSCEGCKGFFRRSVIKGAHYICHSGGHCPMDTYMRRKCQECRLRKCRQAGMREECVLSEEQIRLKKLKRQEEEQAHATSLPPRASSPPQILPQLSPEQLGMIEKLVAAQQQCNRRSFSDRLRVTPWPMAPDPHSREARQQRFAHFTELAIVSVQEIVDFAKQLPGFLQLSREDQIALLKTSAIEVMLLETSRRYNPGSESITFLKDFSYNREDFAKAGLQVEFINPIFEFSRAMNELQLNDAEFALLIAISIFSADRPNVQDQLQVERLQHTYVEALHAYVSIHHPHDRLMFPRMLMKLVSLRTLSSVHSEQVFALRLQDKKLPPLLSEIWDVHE
# [3] = molecular target: T2, Retinoic acid receptor gamma (Homo sapiens, UniProt P13631); format: functional, cell-based
# T2 sequence (P13631 whole entry): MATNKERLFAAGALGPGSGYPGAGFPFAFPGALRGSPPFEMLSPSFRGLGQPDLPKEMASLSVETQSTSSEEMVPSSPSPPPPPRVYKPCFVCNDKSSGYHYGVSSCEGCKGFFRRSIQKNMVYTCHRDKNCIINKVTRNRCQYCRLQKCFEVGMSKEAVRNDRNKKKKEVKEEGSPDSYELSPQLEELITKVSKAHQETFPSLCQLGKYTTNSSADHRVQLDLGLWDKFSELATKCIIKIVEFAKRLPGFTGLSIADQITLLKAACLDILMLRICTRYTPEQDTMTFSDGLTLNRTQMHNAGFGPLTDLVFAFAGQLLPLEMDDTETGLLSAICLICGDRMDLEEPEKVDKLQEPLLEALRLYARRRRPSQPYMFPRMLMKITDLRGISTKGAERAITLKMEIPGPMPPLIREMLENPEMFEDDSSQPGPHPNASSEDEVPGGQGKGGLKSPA
# [4] = molecular target: T3, Retinoic acid receptor beta (Homo sapiens, UniProt P10826); format: functional, cell-based
# T3 sequence (P10826 whole entry): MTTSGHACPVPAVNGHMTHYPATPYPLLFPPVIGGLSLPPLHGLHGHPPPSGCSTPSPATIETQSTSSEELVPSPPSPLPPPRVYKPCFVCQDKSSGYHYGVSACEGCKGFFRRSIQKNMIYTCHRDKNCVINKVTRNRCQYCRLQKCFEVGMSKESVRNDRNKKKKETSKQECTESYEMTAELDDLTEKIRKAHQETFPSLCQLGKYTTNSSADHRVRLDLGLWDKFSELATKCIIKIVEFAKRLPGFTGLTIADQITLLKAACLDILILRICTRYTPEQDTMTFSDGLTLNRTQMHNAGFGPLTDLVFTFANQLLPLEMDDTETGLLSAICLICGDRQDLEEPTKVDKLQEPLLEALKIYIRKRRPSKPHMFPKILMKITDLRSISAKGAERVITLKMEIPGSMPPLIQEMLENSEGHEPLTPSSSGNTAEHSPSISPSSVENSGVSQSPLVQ
# [5] = molecular target: T4, Bile acid receptor (Homo sapiens, UniProt Q96RI1); format: functional
# T4 sequence (Q96RI1 whole entry): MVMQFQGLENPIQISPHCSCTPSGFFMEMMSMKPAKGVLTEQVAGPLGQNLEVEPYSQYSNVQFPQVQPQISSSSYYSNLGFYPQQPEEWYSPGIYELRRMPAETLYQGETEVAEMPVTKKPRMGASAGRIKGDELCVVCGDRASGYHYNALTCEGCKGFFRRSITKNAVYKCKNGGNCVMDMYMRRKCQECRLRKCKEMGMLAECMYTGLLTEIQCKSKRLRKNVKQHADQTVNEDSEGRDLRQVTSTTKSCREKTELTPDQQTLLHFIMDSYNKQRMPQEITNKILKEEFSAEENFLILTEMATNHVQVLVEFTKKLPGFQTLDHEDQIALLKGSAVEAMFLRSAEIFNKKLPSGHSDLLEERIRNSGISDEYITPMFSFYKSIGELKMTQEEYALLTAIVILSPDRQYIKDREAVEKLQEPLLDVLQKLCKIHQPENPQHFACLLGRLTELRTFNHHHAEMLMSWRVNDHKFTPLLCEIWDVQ
# [6] = molecular target: T5, Oxysterols receptor LXR-beta (Homo sapiens, UniProt P55055); format: functional
# T5 sequence (P55055 whole entry): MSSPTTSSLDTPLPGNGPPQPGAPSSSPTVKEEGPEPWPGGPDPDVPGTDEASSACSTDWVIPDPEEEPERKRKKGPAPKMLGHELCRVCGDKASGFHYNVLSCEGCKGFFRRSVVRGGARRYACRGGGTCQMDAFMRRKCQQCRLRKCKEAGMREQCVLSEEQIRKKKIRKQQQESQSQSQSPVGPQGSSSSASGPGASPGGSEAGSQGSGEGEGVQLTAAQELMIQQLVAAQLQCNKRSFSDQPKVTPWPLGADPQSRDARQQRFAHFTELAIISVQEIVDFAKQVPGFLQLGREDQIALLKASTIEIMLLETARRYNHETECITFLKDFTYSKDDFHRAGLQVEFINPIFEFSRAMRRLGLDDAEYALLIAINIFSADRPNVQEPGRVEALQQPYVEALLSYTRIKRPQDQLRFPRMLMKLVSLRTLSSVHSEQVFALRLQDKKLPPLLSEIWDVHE
# [7] = molecular target: T4, Bile acid receptor; format: functional; remark: listed apart in the source
# Also: assay procedure not described here.
# Histamine H1 receptor, sequence (P35367 whole entry): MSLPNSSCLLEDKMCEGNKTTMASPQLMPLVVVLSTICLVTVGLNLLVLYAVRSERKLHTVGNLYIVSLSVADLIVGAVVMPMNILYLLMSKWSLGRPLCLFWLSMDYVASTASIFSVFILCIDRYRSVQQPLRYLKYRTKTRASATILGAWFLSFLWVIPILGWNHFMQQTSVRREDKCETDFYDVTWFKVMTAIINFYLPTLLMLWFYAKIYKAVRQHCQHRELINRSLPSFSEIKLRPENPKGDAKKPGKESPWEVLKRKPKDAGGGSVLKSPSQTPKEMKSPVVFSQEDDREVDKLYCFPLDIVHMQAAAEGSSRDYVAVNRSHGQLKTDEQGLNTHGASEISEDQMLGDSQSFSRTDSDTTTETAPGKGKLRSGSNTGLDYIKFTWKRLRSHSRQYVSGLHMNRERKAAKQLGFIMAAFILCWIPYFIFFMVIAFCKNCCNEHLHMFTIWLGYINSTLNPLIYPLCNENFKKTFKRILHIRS
AC50 [1],SMILES,AC50 [2],AC50 [3],AC50 [4],AC50 [5],AC50 [6],AC50 [7]
> 30 µM,Nc1nc(NC2CC2)c2ncn([C@H]3C=C[C@@H](CO)C3)c2n1 [ABACAVIR],,,,,,
,CN1C(C(=O)Nc2ccccn2)=C(O)c2sc(Cl)cc2S1(=O)=O [LORNOXICAM],> 30 µM,> 30 µM,> 30 µM,> 30 µM,> 30 µM,> 30 µM
,Cc1c(C(=O)NN2CCCCC2)nn(-c2ccc(Cl)cc2Cl)c1-c1ccc(Cl)cc1 [RIMONABANT],> 30 µM,> 30 µM,> 30 µM,> 30 µM,> 30 µM,> 30 µM
